According to patent publication US20080220416A1, “Compositions for Inhibiting Cell Growth and Inducing Apoptosis in Cancer Cells and Methods of Use Thereof” (THE BOARD OF TRUSTEES OF THE UNIVERSITY OF ILLINOI, priority 2004, published 2008):
Square brackets hold non-standard residues; d marks the D form. Peptide text beside a SMILES is read from it. * marks the point of attachment. Nle = CCCC[C@H](N)C(=O)O; Cbz = O=C(OCc1ccccc1)*

Experiments:
[1] = tested on: CaSki human cervical cancer cells; test: Cell growth inhibition assay in CaSki cervical cancer cells (crystal violet); assay type: cell-based
Protocol: The cell growth inhibition assay was performed in a 96-well plate format. Inhibition was assessed by monitoring the protein content in each well using the crystal violet staining method as described by Skehan et al., 1990, J Natl Cancer Inst 82:1107-1112 and Prochaska et al., 1988, Anal Biochem 169:328-336. Briefly, cells were plated at a density of 2×10^4 cells/ml in 200 μl of DMEM supplemented with 10% FBS. The cells were transfected with siRNAs ([…] siRNA oligos/well) using Oligofectamine Transfection Reagents (InVitrogen) according to manufacturer's instructions. Twenty-four hours post-transfection, the media was decanted, 190 μl of fresh media was added to each well, and 10 μl of cisplatin (4 mM) dissolved in 10% DMSO was added to the wells as a series 2-fold dilutions (final concentration of cisplatin in the wells ranged from 0.5-200 μM). The cells were incubated with cisplatin for 48 hrs, the media was decanted, and the cells were submerged with 200 μl of 0.2% crystal violet in 2% ethanol for 10 min. The plates were rinsed for 2 min with tap water. The bound dye was solublized by incubation at 37° C. for 1 h with 200 μl of 0.5% sodium dedecyl sulfate in 50% ethanol. The plates were then scanned with an ELISA reader at 562 nm. The percentage cell growth inhibition mediated by cisplatin was calculated as: % inhibition=[1-(OD of cisplatin-treated cells/OD DMSO-treated control cells)]×100/100.
CaSki human cervical cancer cells treated for 48 hrs with z-Leu-Leu-Nle-CHO alone were tested for cell growth inhibition. The cell growth inhibition assay was performed in a 96-well plate format. Inhibition was assessed by monitoring the protein content in each well using the crystal violet staining method Skehan, P. et al., 1990, J Natl Cancer Inst 82:1107-1112. Briefly, cells were plated at a density of 2×10^4 cells/ml in 200 μl of DMEM supplemented with 10% FBS. After pre-incubation period of 24 h, the media was decanted, 190 μl of fresh media was added to each well, and 10 μl (150 μM) of z-Leu-Leu-Nle-CHO dissolved in 10% DMSO was added to the wells as a series 2-fold dilutions (final concentration of cisplatin in the wells ranged from 0.05-7.5 μM). The cells were incubated with z-Leu-Leu-Nle-CHO for 48 hrs, the media was decanted, and the cells were submerged with 200 μl of 0.2% crystal violet in 2% ethanol for 10 min. The plates were rinsed for 2 min with tap water. The bound dye was solublized by incubation at 37° C. for 1 h with 200 μl of 0.5% sodium dedecyl sulfate in 50% ethanol. The plates were then scanned with an ELISA reader at 562 nm. The percentage cell growth inhibition mediated by test agents was calculated as: % inhibition=[1-(OD of z-Leu-Leu-Nle-CHO-treated cells/OD DMSO-treated control cells)]×100/100.
To determine whether z-Leu-Leu-Nle-CHO treatment potentiates the effect of cisplatin on human […] cancer cells, the CaSki cells were treated for 48 h with 0.1-0.8 μM z-Leu-Leu-Nle-CHO and various concentrations of cisplatin (2-fold dilutions of a cisplatin solution to produce final concentrations of 1.6-200 μM cisplatin). Following the z-Leu-Leu-Nle-CHO and cisplatin treatment, the cells were tested for growth inhibition as described above.
Isobologram analysis was performed by measuring the IC50 values of cisplatin in the presence of various concentrations of z-Leu-Leu-Nle-CHO. These IC50 values were plotted with SigmaPlot, and a straight line was traced between the IC50 values of cells treated with either cisplatin or z-Leu-Leu-Nle-CHO alone.

MDA-MB231 cells = test: Cell cycle distribution of MDA-MB231 cells by flow cytometry; assay type: cell-based, human
Protocol: Cell cycle analysis was performed to further study the effects of inhibition of Notch signaling in breast cancer cells. MDA-MB231 cells were treated overnight with 0-10 μM z-Leu-Leu-Nle-CHO prior to cell cycle distribution analysis by flow cytometry. Alternatively, MDA-MB231 cells were transfected with Notch-1, Notch-4 or control siRNA as described above in Example 15. For cell cycle distribution analysis by flow cytometry, z-Leu-Leu-Nle-CHO- or siRNA-treated cells (10^6) were pelleted and washed twice in PBS. Cells were then fixed in 80% methanol and stored at −20° C. until use. Fixed cells were pelleted and washed twice in PBS, and resuspended in 50 μl PI:PBS solution (50 μg/ml PI). After RNase A (100 μg/ml) treatment at 37° C. for an hour, cells were analyzed by flow cytometry using a FACScalibur instrument.

Compound: CCCC[C@@H](C=O)NC(=O)[C@H](CC(C)C)NC(=O)[C@H](CC(C)C)NC(=O)OCc1ccccc1 [z-Leu-Leu-Nle-CHO, N-benzyloxycarbonyl-leucyl-leucyl-norleucinal] (Cbz-Leu-Leu-[Nle]-aldehyde)
- effect on cisplatin cell growth inhibition ([1]; 0.1-0.8 μM, doses lower than IC50, 48 h): potentiated the effects of cisplatin
- IC50 ([1]; Homo sapiens, Ca-Ski, alone, 48 hrs, read-out: IC50, cell growth inhibition): 640 nM
- isobologram analysis with cisplatin ([1]; especially at low cisplatin concentrations (1-50 μM)): moderate synergism
- cell cycle distribution (MDA-MB231 cells; 0-10 μM overnight): accumulation of cells in the G2/M stage of the cell cycle

Compound: 5′-AAGTGTCTGAGGCCAGCAAGA-3′ [Notch-1 siRNA]
- effect on cytotoxicity of cisplatin ([1]; siRNA 24 h before cisplatin): strikingly potentiated the cytotoxicity of cisplatin
- cell cycle distribution (MDA-MB231 cells; siRNA transfection): accumulation of cells in G2/M was maximal at 24 hours
